Measurements taken from US12030903B2, “Antiviral compounds” (Gilead Sciences, Inc., priority 2020, dated 2024).

Columns and labels:
[1] = system: Dengue serotype 2 New Guinea C (NGC) strain; test: DENV-2 Huh-7 EC50 (qPCR of viral RNA in infected Huh7 cells); format: cell-based; details: Dengue virus, DENV2, Huh-7, Huh7 cells infected with Dengue serotype 2 NGC, MOI=0.1, 48 hours
Procedure: Huh7 (Human hepatocarcinoma 7) cells were maintained in 10% FCS-containing DMEM complete media. On the day of the assay, cells were trypsinized (0.1% Trypsin-EDTA), washed and infected for 2 hours in serum-free DMEM with Dengue serotype 2 New Guinea C (NGC) strain at MOI=0.1 with gentle agitation at 37° C. After 2 hours, cells were washed with serum-free media and suspended in 10% FCS-containing DMEM (Gibco, supplemented with sodium pyruvate, NEAA, Penicillin-Streptomycin). 10^5 cells were plated in triplicate in 96-well plates with compounds dispensed at graded doses (Hewlett-Packard D300 Digital Dispenser). All wells were normalized to 0.25% DMSO. At 48 hours, cells were washed with 1× PBS and all supernatants removed. Total RNA was extracted using RNEasy 96 plates (Qiagen) and used to generate first-strand cDNA using XLT cDNA 5× Supermix (QuantaBio). cDNA was used as a template in a Taqman qPCR duplex reaction specific to DENV2 viral and GAPDH gene expression. EC50 values were determined using Prism Graphpad software, with normalization to a positive control and no compound negative control wells.

[2] = Huh-7 CC50 (CellTiter Glo viability); format: cell-based, Human; details: human, Huh7 hepatocarcinoma cells
Procedure: Human hepatocarcinoma 7 (Huh7) cells were maintained in 10% FCS-containing complete DMEM. On day of assay, cells were trypsinized with 0.1% Trypsin-EDTA, washed and cultured in triplicate at 1-2×10^4 cells/well in 96-well plates with compounds dispensed at graded doses (Hewlett-Packard D300 Digital Dispenser). All wells were normalized to 0.25% DMSO. After 48 hours, CellTiter Glo (Promega) was added and incubated for 10 minutes at room temp before reading on a luminometer. % viability curves were calculated against no compound and no cell control wells. CC50 values were determined using Prism Graphpad software.

[3] = system: Dengue 2, New Guinea strain (NGC); test: DENV-2 moDC EC50 (qPCR of viral RNA in infected moDCs); format: cell-based, New Guinea strain (NGC); human moDCs; details: Dengue virus, human moDCs infected with Dengue 2 NGC, MOI=0.1, 48 hours
Procedure: Example 82. DENV-2 moDC EC50
Human monocyte-derived dendritic cells (moDCs) were derived from CD14+ monocytes (AllCells) cultured in Human Mo-DC Differentiation medium containing GM-CSF and IL-4 (Miltenyi Biotec). On day 7, moDCs were harvested by mechanical disruption, washed and suspended in serum-free RPMI. moDCs were infected with Vero-derived Dengue 2, New Guinea strain (NGC) at a MOI=0.1 for two hours in serum-free RPMI with gentle agitation at 37° C. Cells were washed and resuspended in 10% serum-containing RPMI (Gibco, supplemented with sodium pyruvate, NEAA, Penicillin-Streptomycin). […] were plated in triplicate in 96-well plates with compounds dispensed at graded doses (Hewlett-Packard D300 Digital Dispenser). All wells were normalized to 0.25% DMSO. At 48 hours, cells were washed with 1×PBS and all supernatants removed. Total RNA was extracted using RNEasy 96 plates (Qiagen) and used to generate first-strand cDNA using XLT cDNA 5× Supermix (QuantaBio). cDNA was used as a template in a Taqman qPCR duplex reaction specific to DENV2 viral and GAPDH gene expression. EC50 values were determined using Prism Graphpad software, with normalization to a positive control and no compound negative control wells.

[4] = system: RSV strain A2; test: RSV HEp-2 EC50 (infectious cytopathic cell protection assay); format: cell-based, RSV strain A2; HEp-2 cells; details: human respiratory syncytial virus, HEp-2, 96 h, read-out: RSV Hep-2 EC50
Procedure: Example 86. RSV HEp-2 EC50
Antiviral activity against RSV is determined using an infectious cytopathic cell protection assay in HEp-2 cells. In this assay, compounds inhibiting viral infection and/or replication produce a cytoprotective effect against the virus-induced cell killing that can be quantified using a cell viability reagent. The techniques used here are novel adaptations of methods described in published literature (Chapman et al., Antimicrob Agents Chemother. 2007, 51(9):3346-53.)
HEp-2 cells are obtained from ATCC (Manassas, VI) and maintained in MEM media supplemented with 10% fetal bovine serum and penicillin/streptomycin. Cells are passaged twice a week and kept at subconfluent stage. Commercial stock of RSV strain A2 (Advanced Biotechnologies, Columbia, MD) is titered before compound testing to determine the appropriate dilution of the virus stock that generates desirable cytopathic effect in HEp-2 cells.
For antiviral tests, HEp-2 cells are grown in large cell culture flasks to near confluency but not fully so. The compounds to be tested are prediluted in DMSO in 384-well compound dilution plates, either in an 8 or 40 sample per plate standardized dose response format. 3-fold serial dilution increments of each test compound are prepared in the plates and test samples are transferred via acoustic transfer apparatus (Echo, Labcyte) at 100 nL per well into cell culture assay 384-well plates. Each compound dilution is transferred in single or quadruplicate samples into dry assay plates, which are stored until assay is ready to go. The positive and negative controls are laid out in opposite on ends of the plate in vertical blocks (1 column).
Subsequently, an infectious mixture is prepared using an appropriate dilution of virus stock previously determined by titration with cells at a density of 50,000/mL and 20 uL/well is added to test plates w/compounds via automation (uFlow, Biotek). Each plate includes negative and positive controls (16 replicates each) to create 0% and 100% virus inhibition standards, respectively. Following the infection with RSV, testing plates are incubated for 4 days in a 37° C. cell culture incubator. After the incubation, a cell viability reagent, Cell TiterGlo (Promega, Madison, WI) is added to the assay plates, which are incubated briefly, and a luminescent readout is measured (Envision, Perkin Elmer) in all the assay plates. The RSV-induced cytopathic effect, percentage inhibition, is determined from the levels of remaining cell viability. […] Various potent anti-RSV tool compounds are used as positive controls for antiviral activity.

[5] = HEp-2 CC50 (cytotoxicity in uninfected HEp-2 cells); format: cell-based; details: human, CellTiter Glo
Procedure: Instead, an uninfected cell mixture at the same density is added at 20 uL/well to plates containing prediluted compounds, also at 100 nL/sample. Assay plates are then incubated for 4 days followed by a cell viability test using the same CellTiter Glo reagent addition and measurement of luminescent readouts. Untreated cell and cells treated at 2 μM puromycin (Sigma, St. Louis, MO) serve as 100% and 0% cell viability control, respectively.

[6] = moDC CC50 (CellTiter Glo viability); format: cell-based, Human; details: human, uninfected moDCs
Procedure: Human monocyte-derived dendritic cells (moDCs) were derived from CD14+ monocytes (AllCells) cultured in Human Mo-DC Differentiation medium containing GM-CSF and IL-4 (Miltenyi Biotec). On day 7, moDCs were harvested by mechanical disruption, washed and cultured in triplicate at […] cells/well in 96-well plates with compounds dispensed at graded doses (Hewlett-Packard D300 Digital Dispenser). All wells were normalized to 0.25% DMSO. After 48 hours, CellTiter Glo (Promega) was added and incubated for 10 minutes at room temp before reading on a luminometer. % viability curves were calculated against no compound and no cell control wells. CC50 values were determined using Prism Graphpad software.

**Q.** Which results are given for `C[C@H](NP(=O)(OC[C@@]1(CF)O[C@@H](c2ccc3c(N)ncnn23)[C@H](O)[C@@H]1O)Oc1ccccc1)C(=O)OC1CCC1` (stereo partly drawn) [Example 71, cyclobutyl ((((2R,3S,4R,5S)-5-(4-aminopyrrolo[2,1-f][1,2,4]triazin-7-yl)-2-(fluoromethyl)-3,4-dihydroxytetrahydrofuran-2-yl)methoxy)(phenoxy)phosphoryl)-L-alaninate]?
**A.** EC50 [1]: 298 nM; CC50 at 48 h [2]: 13000 nM; EC50 [3]: 143 nM; EC50 [4]: 290 nM; CC50 at 4 days [5]: > 100000 nM; CC50 at 48 h [6]: 8800 nM

**Q.** Which EC50 [1] does the source give for `CCCCOCCOC(=O)[C@H](C)NP(=O)(OC[C@@]1(CF)O[C@@H](c2ccc3c(N)ncnn23)[C@H](O)[C@@H]1O)Oc1ccccc1` (stereo partly drawn) [Example 42, 2-butoxyethyl ((((2R,3S,4R,5S)-5-(4-aminopyrrolo[2,1-f][1,2,4]triazin-7-yl)-2-(fluoromethyl)-3,4-dihydroxytetrahydrofuran-2-yl)methoxy)(phenoxy)phosphoryl)-L-alaninate] here?
**A.** 667 nM

**Q.** And the CC50 at 48 h [2]?
**A.** 21100 nM

**Q.** And the EC50 [3]?
**A.** 258 nM

**Q.** And the EC50 [4]?
**A.** 860 nM

**Q.** And the CC50 at 4 days [5]?
**A.** > 100000 nM

**Q.** What about the CC50 at 48 h [6] of the same molecule?
**A.** 5330 nM

**Q.** For `CCCC(CCC)COC(=O)[C@H](C)NP(=O)(OC[C@@]1(CF)O[C@@H](c2ccc3c(N)ncnn23)[C@H](O)[C@@H]1O)Oc1ccccc1` (stereo partly drawn) [Example 68, 2-propylpentyl ((((2R,3S,4R,5S)-5-(4-aminopyrrolo[2,1-f][1,2,4]triazin-7-yl)-2-(fluoromethyl)-3,4-dihydroxytetrahydrofuran-2-yl)methoxy)(phenoxy)phosphoryl)-L-alaninate], which EC50 [1] is on record?
**A.** 278 nM

**Q.** What about the CC50 at 48 h [2] of the same molecule?
**A.** > 25000 nM

**Q.** And the EC50 [3]?
**A.** 169 nM

**Q.** What about the EC50 [4] of the same molecule?
**A.** 141 nM

**Q.** And the CC50 at 4 days [5]?
**A.** > 100000 nM

**Q.** And the CC50 at 48 h [6]?
**A.** 6260 nM

**Q.** What does the source list for `CC(C)OC(=O)[C@H](C)N[P@](=O)(OC[C@@]1(CF)O[C@@H](c2ccc3c(N)ncnn23)[C@H](OC(=O)C(C)C)[C@@H]1OC(=O)C(C)C)Oc1ccccc1` [Example 23, (2R,3S,4S,5S)-5-(4-aminopyrrolo[2,1-f][1,2,4]triazin-7-yl)-2-(fluoromethyl)-2-((((S)-(((S)-1-isopropoxy-1-oxopropan-2-yl)amino)(phenoxy)phosphoryl)oxy)methyl) tetrahydrofuran-3,4-diyl bis(2-methylpropanoate)]?
**A.** EC50 [1]: 1800 nM; CC50 at 48 h [2]: > 23200 nM; EC50 [3]: 387 nM; EC50 [4]: 4320 nM; CC50 at 4 days [5]: 26300 nM; CC50 at 48 h [6]: 10900 nM

**Q.** With `CCCCCCOC(=O)[C@H](C)N[P@@](=O)(OC[C@@]1(CF)O[C@@H](c2ccc3c(N)ncnn23)[C@H](O)[C@@H]1O)Oc1ccccc1` (single isomer, unassigned) [Example 18] as the molecule, how does the EC50 [1] read?
**A.** 384 nM

**Q.** What about the CC50 at 48 h [2] of the same molecule?
**A.** > 25000 nM

**Q.** And the EC50 [3]?
**A.** 264 nM

**Q.** And the EC50 [4]?
**A.** 1300 nM

**Q.** And the CC50 at 4 days [5]?
**A.** > 100000 nM

**Q.** And the CC50 at 48 h [6]?
**A.** > 10500 nM

**Q.** For `CCCCCCOC(=O)[C@H](C)NP(=O)(OC[C@@]1(CF)O[C@@H](c2ccc3c(N)ncnn23)[C@H](O)[C@@H]1O)Oc1ccccc1` (stereo partly drawn) [Example 17, hexyl ((((2R,3S,4R,5S)-5-(4-aminopyrrolo[2,1-f][1,2,4]triazin-7-yl)-2-(fluoromethyl)-3,4-dihydroxytetrahydrofuran-2-yl)methoxy)(phenoxy)phosphoryl)-L-alaninate], which EC50 [1] is on record?
**A.** 510 nM

**Q.** And the CC50 at 48 h [2]?
**A.** > 25000 nM

**Q.** What about the EC50 [4] of the same molecule?
**A.** 516 nM

**Q.** What about the CC50 at 4 days [5] of the same molecule?
**A.** > 100000 nM

**Q.** What does the source list for `C[C@H](NP(=O)(OC[C@@]1(CF)O[C@@H](c2ccc3c(N)ncnn23)[C@H](O)[C@@H]1O)Oc1ccccc1)C(=O)OCC(C)(C)C(F)(F)F` (stereo partly drawn) [Example 53, 3,3,3-trifluoro-2,2-dimethylpropyl ((((2R,3S,4R,5S)-5-(4-aminopyrrolo[2,1-f][1,2,4]triazin-7-yl)-2-(fluoromethyl)-3,4-dihydroxytetrahydrofuran-2-yl)methoxy)(phenoxy)phosphoryl)-L-alaninate]?
**A.** EC50 [1]: 419 nM; CC50 at 48 h [2]: 19700 nM; EC50 [4]: 565 nM; CC50 at 4 days [5]: > 100000 nM

**Q.** What does the source list for `CCC(CC)COC(=O)[C@H](C)N[P@](=O)(OC[C@@]1(CF)O[C@@H](c2ccc3c(=N)n(COP(=O)(O)O)cnn23)[C@H](O)[C@@H]1O)Oc1ccccc1` (single isomer, unassigned) [Example 34]?
**A.** EC50 [1]: 165 nM; CC50 at 48 h [2]: 6470 nM; EC50 [3]: 334 nM; CC50 at 48 h [6]: 7660 nM

**Q.** Which EC50 [1] does the source give for `CCC(CC)COC(=O)[C@H](C)N[P@](=O)(OC[C@@]1(CF)O[C@@H](c2ccc3c(N)ncnn23)[C@H](OC(C)=O)[C@@H]1OC(C)=O)Oc1ccccc1` [Example 60, (2R,3S,4S,5S)-5-(4-aminopyrrolo[2,1-f][1,2,4]triazin-7-yl)-2-((((S)-(((S)-1-(2-ethylbutoxy)-1-oxopropan-2-yl)amino)(Phenoxy)phosphoryl)oxy)methyl)-2-(fluoromethyl)tetrahydrofuran-3,4-diyl diacetate] here?
**A.** 1210 nM

**Q.** What about the CC50 at 48 h [2] of the same molecule?
**A.** > 24800 nM

**Q.** What about the EC50 [4] of the same molecule?
**A.** 1100 nM

**Q.** What about the CC50 at 4 days [5] of the same molecule?
**A.** 36200 nM

**Q.** For `C[C@H](NP(=O)(OC[C@@]1(CF)O[C@@H](c2ccc3c(N)ncnn23)[C@H](O)[C@@H]1O)Oc1ccccc1)C(=O)O[C@@H]1CCN(C)C1` (stereo partly drawn) [Example 35, (R)-1-methylpyrrolidin-3-yl ((((2R,3S,4R,5S)-5-(4-aminopyrrolo[2,1-f][1,2,4]triazin-7-yl)-2-(fluoromethyl)-3,4-dihydroxytetrahydrofuran-2-yl)methoxy) (phenoxy)phosphoryl)-L-alaninate], which EC50 [1] is on record?
**A.** > 25000 nM

**Q.** And the CC50 at 48 h [2]?
**A.** > 25000 nM

**Q.** And the EC50 [4]?
**A.** 42800 nM

**Q.** What about the CC50 at 4 days [5] of the same molecule?
**A.** > 100000 nM
